Consider 81 compounds from the Kinase Knowledgebase extract (Sharma et al. 2016).

For one experiment, the target named is CDK2 (human) (UniProt P24941). Put plainly: Enzyme Assay.
Conditions: not given
With `Nc1nc(NC2CCN(S(=O)(=O)c3ccc(CCN4CCC(c5ccccc5)C4)nc3)CC2)sc1C(=O)c1c(F)cccc1F` (stereo unspecified), the Ki – broadly, a measure of affinity in units of concentration, obtained from inhibition or displacement – worked out at 1.8 nM.

Still in this experiment, the particulars now being: concentration not given here.
With `Nc1nc(NC2CCN(C(=O)c3ccccn3)CC2)sc1C(=O)c1c(F)cccc1F`, the inhibition (usually the drop in the measured response relative to a control, in per cent) is 67%. Same read-out and setting: the value for `COc1ccc(C(=O)N2CCC(Nc3nc(N)c(C(=O)c4c(F)cccc4F)s3)CC2)c(OC)c1` was -11%; that for `Cc1cccc(/C=C/C(=O)N2CCC(Nc3nc(N)c(C(=O)c4c(F)cccc4F)s3)CC2)c1` was 50%. Still for that read-out and setting: the value for `C/C=C/CCC(=O)N1CCC(Nc2nc(N)c(C(=O)c3c(F)cccc3F)s2)CC1` was 71%.

For `CC(SCc1ccccc1)C(=O)N1CCC(Nc2nc(N)c(C(=O)c3c(F)cccc3F)s2)CC1` (stereo unspecified), the inhibition was determined as 50%. On the same count and under the same terms, the value for `Nc1nc(NC2CCN(C(=O)c3csnn3)CC2)sc1C(=O)c1c(F)cccc1F` was 68%; that for `CC(O)CC(=O)N1CCC(Nc2nc(N)c(C(=O)c3c(F)cccc3F)s2)CC1` (stereo unspecified) was 38%; that for `Nc1nc(NC2CCN(C(=O)Cc3ccc(O)c(F)c3)CC2)sc1C(=O)c1c(F)cccc1F` was 59%. Same read-out and setting: the value for `Nc1nc(NC2CCN(C(=O)c3ccc4[nH]nnc4c3)CC2)sc1C(=O)c1c(F)cccc1F` was 49%; that for `Nc1nc(NC2CCN(C(=O)c3ccc(-n4cccc4)cc3)CC2)sc1C(=O)c1c(F)cccc1F` was 69%. The same measure, in the same setting: the value for `CC(=O)Nc1cc(C(=O)N2CCC(Nc3nc(N)c(C(=O)c4c(F)cccc4F)s3)CC2)ccc1C` was 64%; that for `Nc1nc(NC2CCN(C(=O)C(O)c3cc(F)ccc3F)CC2)sc1C(=O)c1c(F)cccc1F` (stereo unspecified) was 57%; that for `CC1(CCC(=O)N2CCC(Nc3nc(N)c(C(=O)c4c(F)cccc4F)s3)CC2)SCCS1` was 78%. Consider `CN(C)C(=O)N1CCC(Nc2nc(N)c(C(=O)c3c(F)cccc3F)s2)CC1`, for which the inhibition was -43%. With `C/C=C/C(=O)N1CCC(Nc2nc(N)c(C(=O)c3c(F)cccc3F)s2)CC1`, the inhibition was -9%.

Regarding `COc1ccc(C(=O)N2CCC(Nc3nc(N)c(C(=O)c4c(F)cccc4F)s3)CC2)c(Cl)c1`, the inhibition stood at 52%.

As for `COc1cccc(CC(=O)N2CCC(Nc3nc(N)c(C(=O)c4c(F)cccc4F)s3)CC2)c1OC`, the inhibition is 70%. For the compound `N#C/C(=C\c1ccccc1)C(=O)N1CCC(Nc2nc(N)c(C(=O)c3c(F)cccc3F)s2)CC1`, the inhibition amounted to 67%. Same read-out and setting: the value for `Nc1nc(NC2CCN(C(=O)CCCCc3ccccc3)CC2)sc1C(=O)c1c(F)cccc1F` was 36%. Same read-out and setting: the value for `Nc1nc(NC2CCN(C(=O)/C=C/c3ccccc3Cl)CC2)sc1C(=O)c1c(F)cccc1F` was 83%; that for `CCCCCCC(=O)N1CCC(Nc2nc(N)c(C(=O)c3c(F)cccc3F)s2)CC1` was 59%; that for `CCCCCCCC(CC)C(=O)N1CCC(Nc2nc(N)c(C(=O)c3c(F)cccc3F)s2)CC1` (stereo unspecified) was 25%.

Consider `CC(C)=CC1C(C(=O)N2CCC(Nc3nc(N)c(C(=O)c4c(F)cccc4F)s3)CC2)C1(C)C` (stereo unspecified), for which the inhibition turned out to be 10%.

Regarding `Cc1cc(C(=O)N2CCC(Nc3nc(N)c(C(=O)c4c(F)cccc4F)s3)CC2)nn1C`, the inhibition is 40%. With `Nc1nc(NC2CCN(C(=O)c3ccccc3-n3cccc3)CC2)sc1C(=O)c1c(F)cccc1F`, the inhibition stood at 50%.

In the case of `C=CCCC(=O)N1CCC(Nc2nc(N)c(C(=O)c3c(F)cccc3F)s2)CC1`, the inhibition is 68%.

With `Nc1nc(NC2CCN(C(=O)C3(c4ccccc4)CC3)CC2)sc1C(=O)c1c(F)cccc1F`, the inhibition was -2%. As for `CC(Oc1ccccc1)C(=O)N1CCC(Nc2nc(N)c(C(=O)c3c(F)cccc3F)s2)CC1` (stereo unspecified), the inhibition was -15%. The same measure, in the same setting: the value for `CCOc1ccccc1/C=C/C(=O)N1CCC(Nc2nc(N)c(C(=O)c3c(F)cccc3F)s2)CC1` was 80%. Turning to `Nc1nc(NC2CCN(C(=O)/C=C/C=C/c3ccccc3)CC2)sc1C(=O)c1c(F)cccc1F`, the inhibition was determined as 58%. On the same count and under the same terms, the value for `Cc1cc(C(=O)N2CCC(Nc3nc(N)c(C(=O)c4c(F)cccc4F)s3)CC2)ccc1Cl` was 51%.

For the compound `CC1CCCC(C(=O)N2CCC(Nc3nc(N)c(C(=O)c4c(F)cccc4F)s3)CC2)C1` (stereo unspecified), the inhibition was found to be 74%.

As to `CC(C)(O)C(=O)N1CCC(Nc2nc(N)c(C(=O)c3c(F)cccc3F)s2)CC1`, the inhibition was 50%.

Regarding `Nc1nc(NC2CCN(C(=O)Cc3ccccc3O)CC2)sc1C(=O)c1c(F)cccc1F`, the inhibition was determined as 48%. The same measure, in the same setting: the value for `Cc1ccccc1C(=O)N1CCC(Nc2nc(N)c(C(=O)c3c(F)cccc3F)s2)CC1` was -11%. Same read-out and setting: the value for `Nc1nc(NC2CCN(C(=O)C(O)c3cccc(O)c3)CC2)sc1C(=O)c1c(F)cccc1F` (stereo unspecified) was 47%. The same measure, in the same setting: the value for `Nc1nc(NC2CCN(S(=O)(=O)c3c(Cl)cc(C(F)(F)F)cc3Cl)CC2)sc1C(=O)c1c(F)cccc1F` was -23%.

As to `Nc1nc(NC2CCN(C(=O)/C=C/c3cccc(F)c3F)CC2)sc1C(=O)c1c(F)cccc1F`, the inhibition was found to be 51%. Turning to `Nc1nc(NC2CCN(C(=O)COc3ccccc3O)CC2)sc1C(=O)c1c(F)cccc1F`, the inhibition was 63%.

Turning to `CCOC(=O)CC(=O)N1CCC(Nc2nc(N)c(C(=O)c3c(F)cccc3F)s2)CC1`, the inhibition was -13%. Same read-out and setting: the value for `Nc1nc(NC2CCN(C(=O)COc3cccc(Cl)c3)CC2)sc1C(=O)c1c(F)cccc1F` was 67%; that for `Cc1nc(C)c(C(=O)N2CCC(Nc3nc(N)c(C(=O)c4c(F)cccc4F)s3)CC2)s1` was 67%; that for `Nc1nc(NC2CCN(C(=O)Cc3cccc4ccccc34)CC2)sc1C(=O)c1c(F)cccc1F` was 51%. Still for that read-out and setting: the value for `C[C@@H](O)CC(=O)N1CCC(Nc2nc(N)c(C(=O)c3c(F)cccc3F)s2)CC1` was 72%; that for `CC(=O)O[C@H](C(=O)N1CCC(Nc2nc(N)c(C(=O)c3c(F)cccc3F)s2)CC1)c1ccccc1` was 41%; that for `Nc1nc(NC2CCN(C(=O)[C@@H]3C[C@H]3c3ccccc3)CC2)sc1C(=O)c1c(F)cccc1F` was -9%. Same read-out and setting: the value for `CC(=O)C(O)(C(=O)N1CCC(Nc2nc(N)c(C(=O)c3c(F)cccc3F)s2)CC1)c1ccccc1` (stereo unspecified) was 26%; that for `CC(=O)CC(=O)C(=O)N1CCC(Nc2nc(N)c(C(=O)c3c(F)cccc3F)s2)CC1` was 50%.

For `Cc1ccc(C)c(/C=C/C(=O)N2CCC(Nc3nc(N)c(C(=O)c4c(F)cccc4F)s3)CC2)c1`, the inhibition is 34%. The same measure, in the same setting: the value for `C=CCc1ccccc1OCC(=O)N1CCC(Nc2nc(N)c(C(=O)c3c(F)cccc3F)s2)CC1` was 76%; that for `Nc1nc(NC2CCN(C(=O)CCCc3cccs3)CC2)sc1C(=O)c1c(F)cccc1F` was 65%; that for `Nc1nc(NC2CCN(C(=O)/C=C/c3cc(F)ccc3F)CC2)sc1C(=O)c1c(F)cccc1F` was 81%.

Take `C=CCCCC(=O)N1CCC(Nc2nc(N)c(C(=O)c3c(F)cccc3F)s2)CC1`: the inhibition was 39%.

In the case of `Nc1nc(NC2CCN(C(=O)CSc3ccncc3)CC2)sc1C(=O)c1c(F)cccc1F`, the inhibition was 23%. The same measure, in the same setting: the value for `CC(=O)OCC(=O)N1CCC(Nc2nc(N)c(C(=O)c3c(F)cccc3F)s2)CC1` was 25%; that for `CCCCCC(=O)N1CCC(Nc2nc(N)c(C(=O)c3c(F)cccc3F)s2)CC1` was 36%; that for `COc1ccc2[nH]c(C(=O)N3CCC(Nc4nc(N)c(C(=O)c5c(F)cccc5F)s4)CC3)cc2c1` was 35%. As to `Nc1nc(NC2CCN(C(=O)Oc3ccc(F)cc3)CC2)sc1C(=O)c1c(F)cccc1F`, the inhibition worked out at 47%. As for `CSc1ncccc1C(=O)N1CCC(Nc2nc(N)c(C(=O)c3c(F)cccc3F)s2)CC1`, the inhibition came out at 33%. Still for that read-out and setting: the value for `Cc1ccc(C)c(CCCC(=O)N2CCC(Nc3nc(N)c(C(=O)c4c(F)cccc4F)s3)CC2)c1` was 41%; that for `COC(=O)C(=O)N1CCC(Nc2nc(N)c(C(=O)c3c(F)cccc3F)s2)CC1` was -12%. On the same count and under the same terms, the value for `CSCC(=O)N1CCC(Nc2nc(N)c(C(=O)c3c(F)cccc3F)s2)CC1` was 84%; that for `Cc1ccc(CCCC(=O)N2CCC(Nc3nc(N)c(C(=O)c4c(F)cccc4F)s3)CC2)cc1` was 38%. Still for that read-out and setting: the value for `Nc1nc(NC2CCN(C(=O)CCCS)CC2)sc1C(=O)c1c(F)cccc1F` was 23%; that for `Nc1nc(NC2CCN(C(=O)CCC(=O)c3ccccc3)CC2)sc1C(=O)c1c(F)cccc1F` was 5%. Turning to `COc1ccccc1/C=C\C(=O)N1CCC(Nc2nc(N)c(C(=O)c3c(F)cccc3F)s2)CC1`, the inhibition was determined as 70%. Same read-out and setting: the value for `Nc1nc(NC2CCN(S(=O)(=O)c3ccc(Oc4ccncc4)cc3)CC2)sc1C(=O)c1c(F)cccc1F` was -28%.

For the compound `Nc1nc(NC2CCN(C(=O)C(CO)c3ccccc3)CC2)sc1C(=O)c1c(F)cccc1F` (stereo unspecified), the inhibition worked out at 57%. The same measure, in the same setting: the value for `CC(=O)SC(C)CC(=O)N1CCC(Nc2nc(N)c(C(=O)c3c(F)cccc3F)s2)CC1` (stereo unspecified) was 50%. On the same count and under the same terms, the value for `Nc1nc(NC2CCN(C(=O)C3CCC(=O)CC3)CC2)sc1C(=O)c1c(F)cccc1F` was 48%; that for `CCSc1ncccc1C(=O)N1CCC(Nc2nc(N)c(C(=O)c3c(F)cccc3F)s2)CC1` was 38%. For `Nc1nc(NC2CCN(C(=O)C3CCOC3)CC2)sc1C(=O)c1c(F)cccc1F` (stereo unspecified), the inhibition was determined as 81%.

As to `Cc1ccc(C(=O)N2CCC(Nc3nc(N)c(C(=O)c4c(F)cccc4F)s3)CC2)cc1`, the inhibition was 60%. Regarding `COC1CCC(C(=O)N2CCC(Nc3nc(N)c(C(=O)c4c(F)cccc4F)s3)CC2)CC1` (stereo unspecified), the inhibition turned out to be 54%.

With `Nc1nc(NC2CCN(C(=O)c3ccc(F)c(F)c3)CC2)sc1C(=O)c1c(F)cccc1F`, the inhibition was 56%. On the same count and under the same terms, the value for `Nc1nc(NC2CCN(C(=O)/C=C/c3ccccc3O)CC2)sc1C(=O)c1c(F)cccc1F` was 74%; that for `Cn1c(C(=O)N2CCC(Nc3nc(N)c(C(=O)c4c(F)cccc4F)s3)CC2)cc2ccccc21` was 61%. On the same count and under the same terms, the value for `Nc1nc(NC2CCN(C(=O)/C=C/c3ccc(F)cc3F)CC2)sc1C(=O)c1c(F)cccc1F` was 28%. As for `Nc1nc(NC2CCN(C(=O)/C=C/c3ccncc3)CC2)sc1C(=O)c1c(F)cccc1F`, the inhibition worked out at 80%. `Nc1nc(NC2CCN(C(=O)c3cc4cc(F)ccc4[nH]3)CC2)sc1C(=O)c1c(F)cccc1F`: the inhibition was determined as 36%.
